± gives the standard deviation of the averaged measurements.
Assays:
MLN-4924 = compound: NS(=O)(=O)OC[C@@H]1C[C@@H](n2ccc3c(N[C@H]4CCc5ccccc54)ncnc32)C[C@@H]1O [MLN-4924]; assay: surviving fraction relative to DMSO-only wells; higher = less growth inhibition; conditions: exposure time: 5 days
Method in brief: (§1)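 Tumour cell lines were seeded in log phase at 250–500 cells per well into 384-well plates. Starting 24 hours later, inhibitors were present continuously for five days at 0.5, 1, 5, 10, 50, 100, 500 and 1000 nM. Surviving fraction, from CellTiter-Glo luminescence, is normalised to the median of DMSO-only wells. Three screens per line were required, with replicate Pearson r >0.7 and median Z' >0.3 for a line to be kept.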

OLAPARIB = compound: O=C(c1cc(Cc2n[nH]c(=O)c3ccccc23)ccc1F)N1CCN(C(=O)C2CC2)CC1 [OLAPARIB]; assay: as above; conditions: exposure time: 5 days
Method in brief: as §1

Test System | surviving fraction (MLN-4924; 0.5 nM) | surviving fraction (MLN-4924; 1 nM) | surviving fraction (MLN-4924; 5 nM) | surviving fraction (MLN-4924; 10 nM) | surviving fraction (MLN-4924; 50 nM) | surviving fraction (MLN-4924; 100 nM) | surviving fraction (MLN-4924; 500 nM) | surviving fraction (MLN-4924; 1000 nM) | surviving fraction (OLAPARIB; 0.5 nM) | surviving fraction (OLAPARIB; 1 nM) | surviving fraction (OLAPARIB; 5 nM) | surviving fraction (OLAPARIB; 10 nM) | surviving fraction (OLAPARIB; 50 nM) | surviving fraction (OLAPARIB; 100 nM) | surviving fraction (OLAPARIB; 500 nM) | surviving fraction (OLAPARIB; 1000 nM)
HOS BONE | 1.04 ± 0.026 | 1.02 ± 0.014 | 1.01 ± 0.042 | 0.949 ± 0.027 | 0.574 ± 0.033 | 0.337 ± 0.013 | 0.0287 ± 0.0011 | 0.0287 ± 0.0021 | 1.03 ± 0.022 | 1.03 ± 0.026 | 1.06 ± 0.0091 | 1.012 ± 0.0081 | 1.02 ± 0.028 | 1.01 ± 0.023 | 1.01 ± 0.026 | 0.953 ± 0.041
HOSMNG BONE | 0.883 ± 0.092 | 0.897 ± 0.032 | 0.951 ± 0.024 | 0.917 ± 0.05 | 1.04 ± 0.14 | 1.08 ± 0.053 | 0.503 ± 0.18 | 0.097 ± 0.016 | 0.877 ± 0.088 | 0.991 ± 0.034 | 0.964 ± 0.043 | 0.933 ± 0.049 | 1.02 ± 0.056 | 1.05 ± 0.03 | 1.06 ± 0.021 | 0.925 ± 0.14
HSSYII SYNOVIAL | 1.01 ± 0.14 | 1 ± 0.078 | 0.965 ± 0.033 | 0.992 ± 0.071 | 0.286 ± 0.012 | 0.166 ± 0.008 | 0.0248 ± 0.001 | 0.0283 ± 0.002 | 0.941 ± 0.039 | 0.949 ± 0.027 | 0.882 ± 0.076 | 0.86 ± 0.013 | 0.827 ± 0.022 | 0.769 ± 0.055 | 0.6097 ± 0.0048 | 0.484 ± 0.046
HT1080 SOFT TISSUE | 1.074 ± 0.0072 | 1.05 ± 0.047 | 1.112 ± 0.0055 | 1.14 ± 0.045 | 0.9977 ± 0.0078 | 0.705 ± 0.042 | 0.223 ± 0.022 | 0.11 ± 0.0061 | 1.02 ± 0.0063 | 0.977 ± 0.023 | 0.9903 ± 0.0038 | 0.965 ± 0.013 | 0.882 ± 0.037 | 0.819 ± 0.032 | 0.7243 ± 0.0055 | 0.608 ± 0.021
HU09 BONE | 0.948 ± 0.097 | 0.931 ± 0.076 | 1.04 ± 0.03 | 1.15 ± 0.048 | 1.01 ± 0.096 | 0.707 ± 0.052 | 0.296 ± 0.0049 | 0.26 ± 0.018 | 1.01 ± 0.094 | 0.974 ± 0.031 | 1.04 ± 0.13 | 1.13 ± 0.083 | 0.896 ± 0.063 | 1.09 ± 0.08 | 0.851 ± 0.061 | 0.779 ± 0.096
